According to PMC6273962, “Design, Synthesis and Structure-Activity Relationships of Novel Diaryl Urea Derivatives as Potential EGFR Inhibitors” (Molecules, 2016):

Target: EGFR (Homo sapiens, UniProt P00533)
Assay: mobility shift kinase assay (Caliper, FAM-labeled peptide)
Type: biochemical

Chain of EGFR (P00533 25-1210): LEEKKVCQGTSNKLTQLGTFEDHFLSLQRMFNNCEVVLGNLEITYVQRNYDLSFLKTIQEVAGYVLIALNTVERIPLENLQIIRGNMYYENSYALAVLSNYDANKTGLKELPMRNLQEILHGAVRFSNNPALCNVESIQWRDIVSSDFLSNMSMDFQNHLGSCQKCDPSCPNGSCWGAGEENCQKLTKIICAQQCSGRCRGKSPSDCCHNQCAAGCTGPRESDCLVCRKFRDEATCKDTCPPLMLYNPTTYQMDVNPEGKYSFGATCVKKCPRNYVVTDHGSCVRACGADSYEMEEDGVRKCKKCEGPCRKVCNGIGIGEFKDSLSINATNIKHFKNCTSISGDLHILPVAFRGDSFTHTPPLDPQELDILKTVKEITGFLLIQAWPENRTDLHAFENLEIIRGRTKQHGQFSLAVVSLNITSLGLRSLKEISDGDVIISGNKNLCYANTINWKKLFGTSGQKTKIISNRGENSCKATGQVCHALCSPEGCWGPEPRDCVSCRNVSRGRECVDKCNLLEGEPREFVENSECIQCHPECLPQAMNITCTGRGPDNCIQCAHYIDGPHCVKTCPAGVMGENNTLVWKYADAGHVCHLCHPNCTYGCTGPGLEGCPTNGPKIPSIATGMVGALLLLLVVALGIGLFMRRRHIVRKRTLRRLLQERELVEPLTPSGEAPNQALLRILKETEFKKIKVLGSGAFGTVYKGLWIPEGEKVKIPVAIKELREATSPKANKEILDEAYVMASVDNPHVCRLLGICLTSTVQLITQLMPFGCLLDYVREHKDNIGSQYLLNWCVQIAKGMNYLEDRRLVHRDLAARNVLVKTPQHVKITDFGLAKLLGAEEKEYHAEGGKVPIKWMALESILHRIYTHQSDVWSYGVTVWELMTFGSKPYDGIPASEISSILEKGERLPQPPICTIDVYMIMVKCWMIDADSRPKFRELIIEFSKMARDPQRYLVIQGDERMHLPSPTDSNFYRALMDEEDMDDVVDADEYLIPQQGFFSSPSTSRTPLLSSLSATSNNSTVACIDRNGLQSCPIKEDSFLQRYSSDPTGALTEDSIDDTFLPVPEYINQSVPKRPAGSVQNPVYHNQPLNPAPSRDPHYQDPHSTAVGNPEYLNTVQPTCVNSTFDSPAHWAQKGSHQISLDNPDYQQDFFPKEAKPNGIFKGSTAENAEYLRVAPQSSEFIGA

**Q.** With `Cc1cccc(Cl)c1NC(=O)Nc1ccc(-c2nc(NCCN(C)C)c3ccccc3n2)cc1` [5a, 1-(2-Chloro-6-methylphenyl)-3-(4-(4-((2-(dimethylamino)ethyl)amino)quinazolin-2-yl)phenyl)urea] as the compound, how does the IC50 read?
**A.** Its IC50 is 56 nM.
